The record followed here is article PMC11272598, “RG7774 (Vicasinabin), an orally bioavailable cannabinoid receptor 2 (CB2R) agonist, decreases retinal vascular permeability, leukocyte adhesion, and ocular inflammation in animal models” (Frontiers in Pharmacology, 2024).

In series [1] the target is T1, Human FAAH (Homo sapiens, UniProt O00519).
T1 construct: purchased Cayman Chemical Company
Put plainly: Human FAAH assay. The class given is biochemical. To be noted: RG7774 10 µM; read-out: Mean ± SEM % inhibition of control, Human FAAH. How it is done: Mouse brain was homogenized in 50 mM Tris-HCl (pH 7.4) using a glass potter, centrifuged at 1000 g for 10 min, and the pellet was discarded. The supernatant (50 µg) was incubated with [^14C]-AEA (10 µM) (ARC, MO, USA) at 37°C for 15 min (Tris-HCl, pH 9.0) and reactions were stopped with a 2:1 (v/v) mixture of chloroform/methanol. [^14C]-ethanolamine release in the aqueous phase was measured as previously reported. Mouse supernatants (50 µg) were preincubated with RG7774 (10 µM) for 15 min and added directly to the incubation medium. Purified human FAAH (1.7 µg; Cayman Chemical Company, MI, USA) was incubated with [^14C]-AEA (10 µM) (ARC, MO, USA) at 37°C for 15 min (pH 9.0), as previously described. […] for 15 min with 8 different concentrations of RG7774 (0.1-500 µM) and added directly to the incubation medium (250 µL). Control experiments was carried out in the presence of the FAAH inhibitor, URB-597 (100 nM).

Series [2] can be described thus: pKa. Format: physicochemical. The note with it: basic. The text has this: TABLE 2 Physicochemical and ADMET profile for RG7774.
The subject of series [3] is laser-induced CNV. Put plainly: Laser-induced CNV in rats, fluorescein angiography lesion area. The note with it: CNV rat model, ED50 0.037 mg/kg. Format: in vivo, Brown Norway rats. As to the method:
Male Brown Norway rats (Charles River, Sulzfeld, Germany) aged 9 weeks and weighing 200 g on arrival ([…] after 1 week) were housed in individually ventilated GR1800 cages (Tecniplast, Pontremoli, Italy) with a maximum density of n = 5 rats per cage with the same litter and sex. The room was kept at 20°C–24°C with 50%–60% humidity and a 12/12 h light-dark cycle with ad libitum access to standard diet and water.
RG7774 was formulated (w/w) in 0.1% hydroxyethyl cellulose, 1% polysorbate 80, 0.18% methylparaben, 0.02% propylparaben, and 0.21% citric acid monohydrate, adjusted to pH 6 using NaOH. Three studies with 20 rats each were performed. […] The wellbeing of the animals was monitored daily, and free access was granted to food and water. […] Body weight was continuously monitored, and oral doses of RG7774 were adjusted accordingly. […]
Rats were anesthetized 1 week after laser injury using fentanyl 0.005 mg/kg, medetomidine 0.15 mg/kg, and midazolam 2 mg/kg. […] Retinal vessels and neovascularization were visualized by switching to fluorescence mode.
Images taken by the Heidelberg Spectralis HRA system were manually analyzed for the degree of CNV within the lesion (fluorescent) area and the affected area (in mm^2) was calculated using the Heidelberg Eye Explorer imaging program (Heidelberg Spectralis HRA, Heidelberg Engineering, Heidelberg, Germany). […]

T1 sequence (O00519 whole entry): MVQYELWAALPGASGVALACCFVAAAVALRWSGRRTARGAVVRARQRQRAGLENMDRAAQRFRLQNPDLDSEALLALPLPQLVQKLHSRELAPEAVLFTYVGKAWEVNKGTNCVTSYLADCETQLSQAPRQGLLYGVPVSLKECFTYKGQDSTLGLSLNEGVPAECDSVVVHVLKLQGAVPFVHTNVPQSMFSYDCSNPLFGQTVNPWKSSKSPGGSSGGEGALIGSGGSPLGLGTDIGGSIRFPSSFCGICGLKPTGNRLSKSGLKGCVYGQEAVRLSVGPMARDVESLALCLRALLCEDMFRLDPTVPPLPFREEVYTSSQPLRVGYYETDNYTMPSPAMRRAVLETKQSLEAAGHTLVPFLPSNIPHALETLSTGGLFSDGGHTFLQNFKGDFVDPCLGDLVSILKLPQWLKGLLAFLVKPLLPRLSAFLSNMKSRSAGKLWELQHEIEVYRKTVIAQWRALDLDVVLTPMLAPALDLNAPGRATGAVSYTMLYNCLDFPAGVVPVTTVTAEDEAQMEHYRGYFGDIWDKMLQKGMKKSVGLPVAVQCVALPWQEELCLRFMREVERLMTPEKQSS

As a reminder, the inhibition is the change of the read-out against control, counted positive when it falls. For orientation: pKa means the negative logarithm of the acid dissociation constant. Consider `Cn1nnnc1Cn1nnc2c(N3CC[C@H](O)C3)nc(C(C)(C)C)nc21` [RG7774, (S)-1-(5-tert-butyl-3-[(1-methyl-1H-tetrazol-5-yl)methyl]-3H-[1,2,3]triazolo[4,5-d]pyrimidin-7-yl)pyrrolidin-3-ol], for which, in series [1], the inhibition at 10 µM was -5.2%. In series [2], this compound showed a pKa of 2.63. Moreover, in series [3], the “maximum concentration of the free active epimer in plasma associated with the ED50” value was found to be 12.5 nM. In addition, the “average concentration of the free active epimer in plasma associated with the ED50” value in series [3] (S/R-enantiomer ratio of 2 assumed) was 1.05 nM.
